Each block holds one molecule with its values, some of them ahead of it.
Experiments:
[1] = molecular target: T1, cIAP2 BIR3 domain (residues 238-349) (Homo sapiens, UniProt Q13489); experiment: Fluorescence polarization competitive binding assay to cIAP2 BIR3; conditions: FP competitive binding, SM5F or SM-F1 as the tracer
T1 construct: cIAP2 BIR3 domain (residues 238-349); His-tag
Protocol: (§1) In order to test the binding ability of conformationally constrained Smac mimetics to other IAP proteins (cIAP1 and cIAP2) binding assay conditions were developed. The recombinant cIAP1 BIR3 domain (residues 253-363), cIAP2 BIR3 domain (residues 238-349), fused to a His-tag, were used in the binding assays. Competitive binding assays for other IAP proteins are performed similarly as that described for XIAP BIR3.
(§2) In competitive binding experiments using SM5F as the tracer to cIAP-1 BIR3 protein, the tested compound was incubated with cIAP-1 BIR3 protein (10 nM) and SM5F (2 nM) in the assay buffer. In competitive binding experiments using SM5F as the tracer to cIAP-2 BIR3 protein, the tested compound was incubated with cIAP-2 BIR3 protein (25 nM) and SM5F (2 nM) in the assay buffer. All other procedures for cIAP-1 BIR3 and cIAP-2 BIR3 proteins were the same as those used for XIAP BIR3 protein competitive assays.
(§3) In competitive binding experiments using SM-F1 as the tracer to cIAP-1 BIR3 protein, the tested compound was incubated with cIAP-1 BIR3 protein (3 nM) and SM-F1 (1 nM) in the assay buffer. In competitive binding experiments using SM-F1 as the tracer to cIAP-2 BIR3 protein, the tested compound was incubated with cIAP-2 BIR3 protein (5 nM) and SM-F1 (1 nM) in the assay buffer.

[2] = system: MDA-MB-231 human breast cancer cell line; experiment: Cell growth inhibition, WST-8 assay; format: cell-based; conditions: MDA-MB-231, 96 h, 4 days
Protocol: (§4) The effect of the compounds of the present invention on the growth of various cancer cell lines was tested. Cells were seeded in 96-well flat bottom cell culture plates at a density of 3000 cells/well with a tested compound and incubated at 37° C. in an atmosphere of 95% air and 5% CO2 for 4 days. The rate of cell growth inhibition after treatment with different concentrations of the compound was determined using a WST-8 kit (2-(2-methoxy-4-nitrophenyl)-3-(4-nitrophenyl)-5-(2, 4 disulfophenyl)-2H-tetrazolium monosodium salt; Dojindo Molecular Technologies, Inc., Gaithersburg, Md.). WST-8 was added at a final concentration of 10% to each well, and then the plates were incubated at 37° C. for 2-3 hrs. The absorbance of the samples was measured at 450 nm using a ULTRA Tecan Reader (Molecular Device). The concentration of the tested compound that inhibited cell growth by 50% (IC50) was calculated by comparing absorbance in untreated cells and the cells treated with the tested compound.

[3] = system: SK-OV-3 ovarian cancer cell line; experiment: Cell growth inhibition, WST-8 assay; format: cell-based; conditions: Homo sapiens, SK-OV-3, 96 h, 4 days
Protocol: as §4

[4] = molecular target: T2, cIAP1 BIR3 domain (residues 253-363) (Homo sapiens, UniProt Q13490); experiment: Fluorescence polarization competitive binding assay to cIAP1 BIR3; conditions: FP competitive binding, SM5F or SM-F1 as the tracer
T2 construct: The recombinant cIAP1 BIR3 domain (residues 253-363); His-tag
T2 sequence (Q13490 253-363): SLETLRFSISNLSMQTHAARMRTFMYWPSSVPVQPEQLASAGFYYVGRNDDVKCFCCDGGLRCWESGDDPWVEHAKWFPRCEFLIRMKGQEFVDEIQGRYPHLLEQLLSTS
Protocol: as §1, §2, §3

XIAP BIR3 protein [5] = molecular target: T3, XIAP BIR3 protein (Homo sapiens, UniProt P98170); experiment: Fluorescence polarization competitive binding assay to XIAP BIR3; conditions: FP competitive binding, SM5F or SM-F1 as the tracer
T3 sequence (P98170 241-356 limits assumed): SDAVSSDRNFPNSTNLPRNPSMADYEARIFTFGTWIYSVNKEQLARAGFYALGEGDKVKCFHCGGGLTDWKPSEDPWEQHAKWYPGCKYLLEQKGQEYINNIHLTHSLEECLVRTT
Source text: A sensitive and quantitative in vitro binding assay using the fluorescence polarization (FP) based method was used to determine the binding affinity of Smac mimetics to XIAP protein (Nikolovska-Coleska et al., Anal. Biochem. 332:261-73 (2004)). For this assay, 5-carboxyfluorescein (5-Fam) was coupled to the lysine side chain of the mutated Smac peptide, AbuRPF-K-(5-Fam)-NH2 (termed SM5F). Another fluorescently tagged Smac mimetic (termed SM-F1) with higher affinities than SM5F was also used.
(§5) In competitive binding experiments using SM5F as the tracer to XIAP BIR3 protein, the tested compound was incubated with XIAP BIR3 protein (30 nM) and SM5F (5 nM) in the assay buffer (100 mM potassium phosphate, pH 7.5; 100 μg/ml bovine gamma globulin; 0.02% sodium azide, Invitrogen). Dose-dependent competitive binding FP experiments were carried out with serial dilutions of tested compounds. For each assay, the bound peptide control containing recombinant XIAP BIR3 protein and SM5F (equivalent to 0% inhibition) and free peptide control containing only free SM5F (equivalent to 100% inhibition) will be included. The polarization values were measured after 3 hrs of incubation when the binding reached equilibrium using an ULTRA READER (Tecan U.S. Inc., Research Triangle Park, N.C.). IC50 values, the inhibitor concentration at which 50% of bound peptide is displaced, will be determined from a plot using nonlinear least-squares analysis. Curve fitting will be performed using GRAPHPAD PRISM software (GraphPad Software, Inc., San Diego, Calif.).
as §5, with “using SM-F1” for “using SM5F”, “protein (10” for “protein (30”, “and SM-1F (2” for “and SM5F (5”, “and SM-1F” for “and SM5F”, “free SM-1F” for “free SM5F”
Negative controls containing protein/tracer complex only (equivalent to 0% inhibition), and positive controls containing only free tracers (equivalent to 100% inhibition), were included in each assay plate. FP values were measured as described above. IC50 values were determined by nonlinear regression fitting of the competition curves. The Ki values of competitive inhibitors were calculated using the equation described before (Nikolovska-Coleska et al., Anal. Biochem. 332:261-73 (2004)), based upon the measured IC50 values, the Kd values of the tracer to different proteins, and the concentrations of the proteins and tracers in the competitive assays. Ki values were also calculated using a commonly used equation known in the literature (Huang, X. J. Biomol. Screen. 8:34-38 (2003)).

[6] = system: breast cancer MDA-MB-231 cell line; experiment: Induction of cell death, trypan blue exclusion assay; format: cell-based, human; conditions: MDA-MB-231, 48 hours, FIG. 3
Protocol: (§6) The ability of SM-1238 to induce cell death was tested in the breast cancer MDA-MB-231 and ovarian cancer SK-OV-3 cell lines (FIG. 3). Cells were treated with SM-1238 for 48 hours and cell viability was determined using the trypan blue exclusion assay.

[7] = system: ovarian cancer SK-OV-3 cell line; experiment: as above; format: cell-based, human; conditions: SK-OV-3, 48 hours, FIG. 3
Protocol: as §6

[8] = Pharmacokinetics in rats following oral administration; conditions: rat, in vivo, male Sprague-Dawley rats, 25 mg/kg, mean±SD; for AUC(0-inf) / Cmax / Tmax: n=3; for half-life: n=3, read-out: half-life (T½) (converted)
XIAP BIR3 protein [9] = molecular target: T3, XIAP BIR3 protein; conditions: tracer SM5F; Nikolovska-Coleska et al. 2004; cited from earlier work
T3 sequence (P98170 241-356 limits assumed): as above

recombinant cIAP-2 BIR3 = molecular target: T4, recombinant cIAP-2 BIR3 (Homo sapiens, UniProt Q13489); conditions: tracer SM5F; Peng et al. 2008; cited from earlier work
T4 construct: cIAP2 BIR3 domain (residues 238-349); His-tag
T4 sequence (Q13489 238-349): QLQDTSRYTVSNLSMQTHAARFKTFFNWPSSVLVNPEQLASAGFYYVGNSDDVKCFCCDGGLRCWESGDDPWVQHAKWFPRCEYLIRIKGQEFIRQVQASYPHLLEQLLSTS

recombinant cIAP-1 BIR3 = molecular target: T5, recombinant cIAP-1 BIR3 (Homo sapiens, UniProt Q13490); conditions: tracer SM5F; Peng et al. 2008; cited from earlier work
T5 construct: The recombinant cIAP1 BIR3 domain (residues 253-363); His-tag
T5 sequence (Q13490 253-363): as the sequence (Q13490 253-363) above

XIAP BIR3 = conditions: background statement; cited from earlier work

T1 sequence (Q13489 238-349): as the sequence (Q13489 238-349) above

Molecule: CN[C@@H](C)C(=O)N[C@H]1CN(C(=O)CCc2ccc(F)cc2)CC[C@H]2CC[C@@H](c3nc4c(-c5ccccc5)cccc4[nH]3)N2C1=O [SM-1271]
IC50 [1]: < 100 nM
IC50 [2]: < 3000 nM
IC50 [3]: < 3000 nM
IC50 [4]: < 100 nM
IC50 (XIAP BIR3 protein [5]): < 500 nM

Molecule: CN[C@@H](C)C(=O)N[C@H]1CN(C(=O)CC(C)C)CC[C@H]2CC[C@@H](c3nc4c(-c5ccccc5)cccc4[nH]3)N2C1=O [SM-1238]
induction of cell death [6]: induced cell death in both cell lines in a concentration-dependant fashion
induction of cell death [7]: induced cell death in both cell lines in a concentration-dependant fashion
IC50 [1]: < 100 nM
AUC(0-inf) [8]: 7100 ± 931 ng·h/mL
Cmax [8]: 831 ± 135 ng/mL
Tmax [8]: 2 ± 1.7 h
half-life [8]: 222 ± 120 min
IC50 [2]: < 3000 nM
IC50 [3]: < 3000 nM
IC50 [4]: < 100 nM
IC50 (XIAP BIR3 protein [5]): < 200 nM

Molecule: CN[C@@H](C)C(=O)N[C@H]1CN(C(=O)CCc2ccccc2)CC[C@H]2CC[C@@H](c3nc4c(-c5ccccc5)cccc4[nH]3)N2C1=O [SM-1270]
IC50 [1]: < 100 nM
IC50 [2]: < 3000 nM
IC50 [3]: < 3000 nM
IC50 [4]: < 100 nM
IC50 (XIAP BIR3 protein [5]): < 500 nM

Molecule: AbuRPF-K-(5-Fam)-NH2 [SM5F]
Kd (XIAP BIR3 protein [9]): 17.9 nM
Kd (recombinant cIAP-2 BIR3): 6.6 nM
Kd (recombinant cIAP-1 BIR3): 4.1 nM

Molecule: CN[C@@H](C)C(=O)N[C@H]1CN(C(=O)Cc2ccc(F)cc2)CC[C@H]2CC[C@@H](c3nc4c(-c5ccccc5)cccc4[nH]3)N2C1=O [SM-1268]
IC50 [1]: < 100 nM
AUC(0-inf) [8]: 6490 ± 965 ng·h/mL
Cmax [8]: 612 ± 16 ng/mL
Tmax [8]: 2 h
half-life [8]: 252 ± 60 min
IC50 [2]: < 3000 nM
IC50 [3]: < 3000 nM
IC50 [4]: < 100 nM
IC50 (XIAP BIR3 protein [5]): < 500 nM

Molecule: CN[C@@H](C)C(=O)N[C@H]1CN(C(=O)Cc2ccccc2)CC[C@H]2CC[C@@H](c3nc4c(-c5ccccc5)cccc4[nH]3)N2C1=O [SM-1257]
IC50 [1]: < 100 nM
IC50 [2]: < 3000 nM
IC50 [3]: < 3000 nM
IC50 [4]: < 100 nM
IC50 (XIAP BIR3 protein [5]): < 500 nM

B1: mature Smac protein: mature Smac/DIABLO protein, endogenous inhibitor of XIAP (protein, UniProt Q9NR28 22-239, looked up)
Diablo IAP-binding …: LCVPVVANFKKRCFSELIRPWHKTVTIGFGVTLCAVPIAQKSEPHSLSSEALMRRAVSLVTDSTSTFLSQTTYALIEAITEYTKAVYTLTSLYRQYTSLLGKMNSEEEDEVWQVIIGARAEMTSKHQEYLKLETTWMTAVGLSEMAAEAAYQTGADQASITARNHIQLVKLQVEEVHQLSRKAETKLAEAQIEELRQKTQEEGEERAESEQEAYLRED
Kd (XIAP BIR3): 420 nM

Further lines, results first:

IC50 [1]: < 100 nM
IC50 [2]: < 3000 nM
IC50 [3]: < 3000 nM
IC50 [4]: < 100 nM
IC50 (XIAP BIR3 protein [5]): < 200 nM
Molecule: CN[C@@H](C)C(=O)N[C@H]1CCCC[C@H]2CC[C@@H](c3nc4c(-c5ccccc5)cccc4[nH]3)N2C1=O [SM-1237]

IC50 [1]: < 1000 nM
IC50 [2]: < 3000 nM
IC50 [3]: < 3000 nM
IC50 [4]: < 1000 nM
IC50 (XIAP BIR3 protein [5]): < 200 nM
Molecule: CN[C@@H](C)C(=O)N[C@H]1CN(C(=O)CC(C)C)CC[C@H]2CC[C@@H](c3nc(-c4ccccc4)cs3)N2C1=O [SM-1235]

IC50 [1]: < 100 nM
IC50 [2]: < 3000 nM
IC50 [3]: < 3000 nM
IC50 [4]: < 100 nM
IC50 (XIAP BIR3 protein [5]): < 500 nM
Molecule: CN[C@@H](C)C(=O)N[C@H]1CN(C(=O)Cc2ccc(F)cc2)CC[C@H]2CC[C@@H](c3nc4c(-c5ccccc5F)cccc4[nH]3)N2C1=O [SM-1308]

IC50 [1]: < 100 nM
IC50 [2]: < 3000 nM
IC50 [3]: < 3000 nM
IC50 [4]: < 100 nM
IC50 (XIAP BIR3 protein [5]): < 500 nM
Molecule: CN[C@@H](C)C(=O)N[C@H]1CN(C(=O)Cc2ccc(F)cc2)CC[C@H]2CC[C@@H](c3nc4c(-c5ccc(F)cc5)cccc4[nH]3)N2C1=O [SM-1307]

IC50 [1]: < 2000 nM
IC50 [2]: < 100000 nM
IC50 [3]: < 100000 nM
IC50 [4]: < 2000 nM
IC50 (XIAP BIR3 protein [5]): < 5000 nM
Molecule: CN[C@@H](C)C(=O)N[C@H]1CCCC[C@H]2CC[C@@H](c3nc(-c4ccccc4)cs3)N2C1=O [SM-1229]

IC50 [1]: < 100 nM
IC50 [2]: < 3000 nM
IC50 [3]: < 3000 nM
IC50 [4]: < 100 nM
IC50 (XIAP BIR3 protein [5]): < 5000 nM
Molecule: CN[C@@H](C)C(=O)N[C@H]1CN(C(=O)Cc2ccc(F)cc2)CC[C@H]2CC[C@@H](c3nc4c(-c5cccc(F)c5)cccc4[nH]3)N2C1=O [SM-1306]

IC50 [1]: < 100 nM
IC50 [2]: < 3000 nM
IC50 [3]: < 3000 nM
IC50 [4]: < 100 nM
IC50 (XIAP BIR3 protein [5]): < 500 nM
Molecule: CN[C@@H](C)C(=O)N[C@H]1CN(C(=O)Cc2ccccc2)CC[C@H]2CC[C@@H](c3nc4c(-c5ccc(F)cc5)cccc4[nH]3)N2C1=O [SM-1317]

IC50 [1]: < 100 nM
AUC(0-inf) [8]: 14300 ± 1970 ng·h/mL
Cmax [8]: 1530 ± 275 ng/mL
Tmax [8]: 2 h
half-life [8]: 402 ± 72 min
IC50 [2]: < 3000 nM
IC50 [3]: < 3000 nM
IC50 [4]: < 100 nM
IC50 (XIAP BIR3 protein [5]): < 500 nM
Molecule: CN[C@@H](C)C(=O)N[C@H]1CN(C(=O)CC(C)C)CC[C@H]2CC[C@@H](c3nc4c(-c5ccc(F)cc5)cccc4[nH]3)N2C1=O [SM-1316]

From patent US8445473B2, “Heteroaryl-substituted bicyclic Smac mimetics and the uses thereof” (The Regents of the University of Michigan, priority 2008, dated 2013)
